Data as given in patent publication US20250250287A1, “HETEROCYCLIC COMPOUNDS, COMPOSITIONS THEREOF, AND METHODS OF TREATMENT THEREWITH” (BeiGene Switzerland GmbH, priority 2022, published 2025).

Tested on: pERK1/2(THR202/TYR204) level in SW620 cell line (KRAS G12V)
Assay: KRAS G12V pERK assay (HTRF) in SW620 cell line
Type: cell-based
Conditions: SW620 cells, 2 hrs compound treatment
Experimental: SW620 cell line was used in this study. Cells were maintained in RPMI 1640 supplemented with 10% fetal bovine serum (Thermo Fisher), 50 units/mL penicillin and streptomycin (Thermo Fisher) and kept at 37° C. in a humidified atmosphere of 5% CO2 in air. Cells were reinstated from frozen stocks that were laid down within 30 passages from the original cells purchased. 40000 cells per well were seeded into a 96-well plate and incubated overnight. Cells were treated with a 10-point dilution series. The final compound concentration is from 0 to 10 μM. After 2 hrs compound treatment, cells were lysed, and the pERK1/2(THR202/TYR204) level in the cell lysates was detected by HTRF kit (Cisbio). In brief, a total of 16 μL of cell lysate from each well of a 96-well plate was transferred to a 384-well white assay plate. Lysate from each well was incubated with 2 μL of Eu3+-cryptate (donor) labeled anti-phospho-ERK1/2 and 2 μL of D2 (acceptor) labeled anti-phospho-ERK1/2 antibodies (Cisbio) overnight in dark at room temperature. When donor and acceptor are in close proximity, excitation of the donor with laser triggers a Fluorescence Resonance Energy Transfer (FRET) towards the acceptor, which in turn fluoresces at 655 nm wavelength. FRET signals were measured using a PHERAstar FSX reader (BMG Labtech). IC50 determination was performed by fitting the curve of percent inhibition versus the log of the inhibitor concentration using Dotmatics.

| Molecule | IC50 [nM] | IC50 (Homo sapiens, SW-620, 2 h) [nM] |
| --- | --- | --- |
| 3-chloro-5-(1-fluoro-12-(((2R,7aS)-2-fluorotetrahydro-1H-pyrrolizin-7a(5H)-yl)methoxy)-6,6a,7,8,9,10-hexahydro-5H-4-oxa-3,10a,11,13-tetraazabenzo[4,5]cycloocta[1,2,3-de]naphthalen-2-yl)-4-(trifluoromethyl)aniline [Example 8] | 290 | – |
| C#Cc1c(F)ccc2cc(O)cc(-c3nc4c5c(nc(OCC67CCCN6CC(F)C7)nc5c3F)N3CCC3CO4)c12 (single isomer, unassigned) [Example 18] | 326 | – |
| C#Cc1c(F)ccc2cc(O)cc(-c3nc4c5c(nc(OCC67CCCN6CC(F)C7)nc5c3F)N3CCC3CO4)c12 (single isomer, unassigned) [Example 20] | 40 | – |
| N#Cc1c(N)sc2c(F)ccc(-c3cc4c5c(nc(OC[C@@]67CCCN6C[C@H](F)C7)nc5c3F)N3CCC[C@H]3CO4)c12 [Example 1, 2-amino-7-fluoro-4-((S)-4-fluoro-2-(((2R,7aS)-2-fluorotetrahydro-1H-pyrrolizin-7a(5H)-yl)methoxy)-8a,9,10,11-tetrahydro-8H-pyrrolo[2′,1′:3,4][1,4]oxazepino[5,6,7-de]quinazolin-5-yl)benzo[b]thiophene-3-carbonitrile] | – | 290 |
| C#Cc1c(F)ccc2cc(O)cc(-c3cc4c5c(nc(OC[C@@]67CCCN6C[C@H](F)C7)nc5c3F)N3CC(F)(F)C[C@H]3CO4)c12 [Example 4, 5-ethynyl-6-fluoro-4-((S)-2,2,8-trifluoro-6-(((2R,7aS)-2-fluorotetrahydro-1H-pyrrolizin-7a(5H)-yl)methoxy)-2,3,12,12a-tetrahydro-1H-pyrrolo[2′,1′:3,4][1,4]oxazepino[5,6,7-de]quinazolin-9-yl)naphthalen-2-ol] | – | 658 |
| N#Cc1c(N)sc2c(F)ccc(-c3cc4c5c(nc(OC[C@@]67CCCN6C[C@H](F)C7)nc5c3F)N3CCC[C@@H]3CCO4)c12 [Example 5, 2-amino-7-fluoro-4-((R)-8-fluoro-6-(((2R,7aS)-2-fluorotetrahydro-1H-pyrrolizin-7a(5H)-yl)methoxy)-1,2,3,12,13,13a-hexahydropyrrolo[1′,2′:5,6][1,5]oxazocino[4,3,2-de]quinazolin-9-yl)benzo[b]thiophene-3-carbonitrile] | – | 668 |
| C#Cc1c(F)ccc2cc(O)cc(-c3cc4c5c(nc(OC[C@@]67CCCN6C[C@H](F)C7)nc5c3F)N3CCCCC3CCO4)c12 (stereo partly drawn) [Example 6, 5-ethynyl-6-fluoro-4-(1-fluoro-13-(((2R,7aS)-2-fluorotetrahydro-1H-pyrrolizin-7a(5H)-yl)methoxy)-6,6a,7,8,9,10-hexahydro-5H-pyrido[1′,2′:5,6][1,5]oxazocino[4,3,2-de]quinazolin-2-yl)naphthalen-2-ol] | – | 271 |
| N#Cc1c(N)sc2c(F)ccc(-c3c(Cl)c4c5c(nc(OC[C@@]67CCCN6C[C@H](F)C7)nc5c3F)N3CCC[C@@H]3CCO4)c12 [Example 7, 2-amino-4-((13aR)-10-chloro-8-fluoro-6-(((2R,7aS)-2-fluorotetrahydro-1H-pyrrolizin-7a (5H)-yl)methoxy)-1,2,3,12,13,13a-hexahydropyrrolo[1′,2′:5,6][1,5]oxazocino[4,3,2-de]quinazolin-9-yl)-7-fluorobenzo[b]thiophene-3-carbonitrile] | – | 49 |
| Nc1cc(Cl)c(C(F)(F)F)c(-c2nc3c4c(nc(OC[C@@]56CCCN5C[C@H](F)C6)nc4c2F)N2CCC[C@H]2CO3)c1 [Example 9, 3-chloro-5-((S)-7-fluoro-5-(((2R,7aS)-2-fluorotetrahydro-1H-pyrrolizin-7a(5H)-yl)methoxy)-2,3,11,11a-tetrahydro-1H-10-oxa-3a,4,6,9-tetraazanaphtho[1,8-e]azulen-8-yl)-4-(trifluoromethyl)aniline] | – | 890 |
| C#Cc1c(F)ccc2cc(O)cc(-c3nc4c5c(nc(OC[C@@]67CCCN6C[C@H](F)C7)nc5c3F)N3CCC[C@H]3CO4)c12 [Example 10, 5-ethynyl-6-fluoro-4-((S)-7-fluoro-5-(((2R,7aS)-2-fluorotetrahydro-1H-pyrrolizin-7a(5H)-yl)methoxy)-2,3,11,11a-tetrahydro-1H-10-oxa-3a,4,6,9-tetraazanaphtho[1,8-ef]azulen-8-yl)naphthalen-2-ol] | – | 43 |
| Nc1cc(Cl)c(C(F)(F)F)c(-c2nc3c4c(nc(OC[C@@]56CCCN5C[C@H](F)C6)nc4c2F)N2CCC[C@@H]2CCO3)c1 [Example 11, 3-chloro-5-((R)-7-fluoro-5-(((2R,7aS)-2-fluorotetrahydro-1H-pyrrolizin-7a(5H)-yl)methoxy)-1,2,3,11,12,12a-hexahydro-10-oxa-3a,4,6,9-tetraazacyclopenta[4,5]cycloocta[1,2,3-de]naphthalen-8-yl)-4-(trifluoromethyl)aniline] | – | 66 |
| Cc1cc(N)cc(-c2nc3c4c(nc(OC[C@@]56CCCN5C[C@H](F)C6)nc4c2F)N2CCC[C@@H]2CCO3)c1C(F)(F)F [Example 12, 3-((R)-7-fluoro-5-(((2R,7aS)-2-fluorotetrahydro-1H-pyrrolizin-7a(5H)-yl)methoxy)-1,2,3,11,12,12a-hexahydro-10-oxa-3a,4,6,9-tetraazacyclopenta[4,5]cycloocta[1,2,3-de]naphthalen-8-yl)-5-methyl-4-(trifluoromethyl)aniline] | – | 56 |
| Nc1cc(Cl)c(C(F)(F)F)c(-c2nc3c4c(nc(OC[C@@]56CCCN5C[C@H](F)C6)nc4c2F)N2CCC[C@@H]2CO3)c1 [Example 13, 3-chloro-5-((R)-7-fluoro-5-(((2R,7aS)-2-fluorotetrahydro-1H-pyrrolizin-7a(5H)-yl)methoxy)-2,3,11,11a-tetrahydro-1H-10-oxa-3a,4,6,9-tetraazanaphtho[1,8-ef]azulen-8-yl)-4-(trifluoromethyl)aniline] | – | 648 |
| Nc1cc(Cl)c(C(F)(F)F)c(-c2nc3c4c(nc(OC[C@@]56CCCN5C[C@H](F)C6)nc4c2F)N2CCCC[C@H]2CO3)c1 [Example 15, 3-chloro-5-((S)-1-fluoro-11-(((2R,7aS)-2-fluorotetrahydro-1H-pyrrolizin-7a(5H)-yl)methoxy)-5,5a,6,7,8,9-hexahydro-4-oxa-3,9a,10,12-tetraazabenzo[4,5]cyclohepta[1,2,3-de]naphthalen-2-yl)-4-(trifluoromethyl)aniline] | – | 187 |
| Nc1cc(Cl)c(C(F)(F)F)c(-c2nc3c4c(nc(OC[C@@]56CCCN5C[C@H](F)C6)nc4c2F)N2CCC(F)C2CO3)c1 (stereo partly drawn) [Example 17, 3-chloro-5-(1,7-difluoro-5-(((2R,7aS)-2-fluorotetrahydro-1H-pyrrolizin-7a(5H)-yl)methoxy)-2,3,11,11a-tetrahydro-1H-10-oxa-3a,4,6,9-tetraazanaphtho[1,8-ef]azulen-8-yl)-4-(trifluoromethyl)aniline] | – | 509 |
| C#Cc1c(F)ccc2cc(O)cc(-c3nc4c5c(nc(OC[C@@]67CCCN6C[C@H](F)C7)nc5c3F)N3C[C@H](F)C[C@H]3CO4)c12 [Example 19, 4-((2R,11aS)-2,7-difluoro-5-(((2R,7aS)-2-fluorotetrahydro-1H-pyrrolizin-7a(5H)-yl)methoxy)-2,3,11,11a-tetrahydro-1H-10-oxa-3a,4,6,9-tetraazanaphtho[1,8-ef]azulen-8-yl)-5-ethynyl-6-fluoronaphthalen-2-ol] | – | 112 |
| Nc1cc(Cl)c(C(F)(F)F)c(-c2nc3c4c(nc(OC[C@@]56CCCN5C[C@H](F)C6)nc4c2F)N2CC[C@H]2CCO3)c1 [Example 22, 3-chloro-5-((S)-6-fluoro-4-(((2R,7aS)-2-fluorotetrahydro-1H-pyrrolizin-7a(5H)-yl)methoxy)-1,10,11,11a-tetrahydro-2H-9-oxa-2a,3,5,8-tetraazacyclobuta[4,5]cycloocta[1,2,3-de]naphthalen-7-yl)-4-(trifluoromethyl)aniline] | – | 466 |
| Nc1cc(Cl)c(C(F)(F)F)c(-c2nc3c4c(nc(OC[C@@]56CCCN5C[C@H](F)C6)nc4c2F)N2CC[C@@H]2CCO3)c1 [Example 23, 3-chloro-5-((R)-6-fluoro-4-(((2R,7aS)-2-fluorotetrahydro-1H-pyrrolizin-7a(5H)-yl)methoxy)-1,10,11,11a-tetrahydro-2H-9-oxa-2a,3,5,8-tetraazacyclobuta[4,5]cycloocta[1,2,3-de]naphthalen-7-yl)-4-(trifluoromethyl)aniline] | – | 73 |
| CC1Oc2nc(-c3cc(N)cc(Cl)c3C(F)(F)F)c(F)c3nc(OC[C@@]45CCCN4C[C@H](F)C5)nc(c23)N2CCC[C@@H]12 (stereo partly drawn) [Example 24, 3-chloro-5-((11aS)-7-fluoro-5-(((2R,7aS)-2-fluorotetrahydro-1H-pyrrolizin-7a(5H)-yl)methoxy)-11-methyl-2,3,11,11a-tetrahydro-1H-10-oxa-3a,4,6,9-tetraazanaphtho[1,8-ef]azulen-8-yl)-4-(trifluoromethyl)aniline] | – | 121 |
| Nc1cc(Cl)c(C(F)(F)F)c(-c2nc3c4c(nc(OC[C@@]56CCCN5C[C@H](F)C6)nc4c2F)N2CCCCCC2CO3)c1 (stereo partly drawn) [Example 25, 3-chloro-5-(1-fluoro-12-(((2R,7aS)-2-fluorotetrahydro-1H-pyrrolizin-7a(5H)-yl)methoxy)-5a,6,7,8,9,10-hexahydro-5H-4-oxa-3,10a,11,13-tetraazanaphtho[1,8-ab]heptalen-2-yl)-4-(trifluoromethyl)aniline] | – | 53 |
